Source: ChEMBL document CHEMBL1201862, “PubChem BioAssay data set” (2004)
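Tested at 5 concentrations; 48 h exposure; 96-well plates; endpoints linearly interpolated, else capped at highest concentration. GI50 is the concentration that inhibits growth by half.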 Active and inactive are the calls of the source. Cut-off read from the data, not from the text of the source: active = GI50 up to about 1.1 µM and inactive = higher.

Assays:
Experiment in all cases: DTP human tumour cell line panel, 48 h
786-0 = test system: 786-0
A498 = test system: A498
A549 = test system: A549
ACHN = test system: ACHN
CAKI-1 = test system: CAKI-1
CCRF-CEM = test system: CCRF-CEM
COLO 205 = test system: COLO 205
DLD-1 = test system: DLD-1
DMS-114 = test system: DMS-114
DMS-273 = test system: DMS-273
EKVX = test system: EKVX
HCC 2998 = test system: HCC 2998
HCT-116 = test system: HCT-116
HCT-15 = test system: HCT-15
HL-60 = test system: HL-60
HOP-62 = test system: HOP-62
HOP-92 = test system: HOP-92
HT-29 = test system: HT-29
IGROV-1 = test system: IGROV-1
K562 = test system: K562
KM12 = test system: KM12
LOX IMVI = test system: LOX IMVI
LXFL 529 = test system: LXFL 529
M14 = test system: M14
M19-MEL = test system: M19-MEL
MOLT-4 = test system: MOLT-4
Malme-3M = test system: Malme-3M
NCI-H23 = test system: NCI-H23
NCI-H460 = test system: NCI-H460
NCI-H522 = test system: NCI-H522
OVCAR-3 = test system: OVCAR-3
OVCAR-4 = test system: OVCAR-4
OVCAR-5 = test system: OVCAR-5
OVCAR-8 = test system: OVCAR-8
RPMI-8226 = test system: RPMI-8226
RXF 393 = test system: RXF 393
RXF 631 = test system: RXF 631
SF-268 = test system: SF-268
SF-295 = test system: SF-295
SF-539 = test system: SF-539
SK-MEL-28 = test system: SK-MEL-28
SK-MEL-2 = test system: SK-MEL-2
SK-MEL-5 = test system: SK-MEL-5
SK-OV-3 = test system: SK-OV-3
SN12C = test system: SN12C
SNB-19 = test system: SNB-19
SNB-75 = test system: SNB-75
SNB-78 = test system: SNB-78
SW-620 = test system: SW-620
TK-10 = test system: TK-10
U-251 = test system: U-251
UACC-257 = test system: UACC-257
UACC-62 = test system: UACC-62
UO-31 = test system: UO-31
XF498 = test system: XF498
HOP-18 = test system: HOP-18
KM-20L2 = test system: KM-20L2
NCI-H226 = test system: NCI-H226
SR = test system: SR

Structure (SMILES): OC1CC1Sc1ccccc1 (stereo not drawn)
- GI50 (786-0): 21 µM (inactive)
- GI50 (A498): 71.8 µM (inactive)
- GI50 (A549): 34.6 µM (inactive)
- GI50 (ACHN): 43.5 µM (inactive)
- GI50 (CAKI-1): 73.3 µM (inactive)
- GI50 (CCRF-CEM): 15.1 µM (inactive)
- GI50 (COLO 205): 40.7 µM (inactive)
- GI50 (DLD-1): 29.8 µM (inactive)
- GI50 (DMS-114): 24.7 µM (inactive)
- GI50 (DMS-273): 33 µM (inactive)
- GI50 (EKVX): 70.1 µM (inactive)
- GI50 (HCC 2998): 35 µM (inactive)
- GI50 (HCT-116): 22.5 µM (inactive)
- GI50 (HCT-15): 36.7 µM
- GI50 (HL-60): 14.2 µM (inactive)
- GI50 (HOP-62): 43 µM (inactive)
- GI50 (HOP-92): 29.6 µM (inactive)
- GI50 (HT-29): 27.2 µM (inactive)
- GI50 (IGROV-1): 23.7 µM (inactive)
- GI50 (K562): 33.9 µM (inactive)
- GI50 (KM12): 34 µM (inactive)
- GI50 (LOX IMVI): 28 µM (inactive)
- GI50 (LXFL 529): 22.8 µM (inactive)
- GI50 (M14): 36.6 µM (inactive)
- GI50 (M19-MEL): 32.9 µM (inactive)
- GI50 (MOLT-4): 21.1 µM (inactive)
- GI50 (Malme-3M): 95.1 µM (inactive)
- GI50 (NCI-H23): 35.6 µM (inactive)
- GI50 (NCI-H460): 65.2 µM (inactive)
- GI50 (NCI-H522): 17.6 µM (inactive)
- GI50 (OVCAR-3): 25.4 µM (inactive)
- GI50 (OVCAR-4): 30.5 µM (inactive)
- GI50 (OVCAR-5): 95.3 µM (inactive)
- GI50 (OVCAR-8): 28.4 µM (inactive)
- GI50 (RPMI-8226): 30.5 µM (inactive)
- GI50 (RXF 393): 25.2 µM (inactive)
- GI50 (RXF 631): 39.9 µM (inactive)
- GI50 (SF-268): 18.6 µM (inactive)
- GI50 (SF-295): 24.5 µM (inactive)
- GI50 (SF-539): 22 µM (inactive)
- GI50 (SK-MEL-28): 22.1 µM (inactive)
- GI50 (SK-MEL-2): 38.1 µM (inactive)
- GI50 (SK-MEL-5): 31.6 µM (inactive)
- GI50 (SK-OV-3): 80.4 µM (inactive)
- GI50 (SN12C): 24 µM (inactive)
- GI50 (SNB-19): 33.9 µM (inactive)
- GI50 (SNB-75): 26.7 µM (inactive)
- GI50 (SNB-78): 26.9 µM (inactive)
- GI50 (SW-620): 25.8 µM (inactive)
- GI50 (TK-10): 59.7 µM (inactive)
- GI50 (U-251): 31.6 µM (inactive)
- GI50 (UACC-257): 52.5 µM (inactive)
- GI50 (UACC-62): 33.3 µM (inactive)
- GI50 (UO-31): 10.1 µM (inactive)
- GI50 (XF498): 79.8 µM (inactive)

Structure (SMILES): COc1cc2c(cc1OC)C(Cc1ccc(Oc3cc(CC4c5cc(OC)c(OC)cc5CCN4C)ccc3O)cc1)N(C)CC2 (stereo not drawn)
- GI50 (786-0): 13.5 µM (inactive)
- GI50 (A498): 22 µM (inactive)
- GI50 (A549): 35.2 µM (inactive)
- GI50 (ACHN): 16.5 µM (inactive)
- GI50 (CAKI-1): 21.7 µM (inactive)
- GI50 (CCRF-CEM): 12.7 µM (inactive)
- GI50 (COLO 205): 11.3 µM (inactive)
- GI50 (DLD-1): 18.7 µM (inactive)
- GI50 (DMS-114): 16.3 µM (inactive)
- GI50 (DMS-273): 21.7 µM (inactive)
- GI50 (EKVX): 88.5 µM (inactive)
- GI50 (HCC 2998): 14.3 µM (inactive)
- GI50 (HCT-116): 10.3 µM (inactive)
- GI50 (HCT-15): 15.6 µM
- GI50 (HL-60): 13.4 µM (inactive)
- GI50 (HOP-18): 26.5 µM (inactive)
- GI50 (HOP-62): 24.3 µM (inactive)
- GI50 (HOP-92): 24.3 µM (inactive)
- GI50 (HT-29): 13.1 µM (inactive)
- GI50 (IGROV-1): 23.1 µM (inactive)
- GI50 (K562): 10.2 µM (inactive)
- GI50 (KM-20L2): 13.1 µM (inactive)
- GI50 (KM12): 21.9 µM (inactive)
- GI50 (LOX IMVI): 17.4 µM (inactive)
- GI50 (LXFL 529): 14.8 µM (inactive)
- GI50 (M14): 15.2 µM (inactive)
- GI50 (M19-MEL): 21 µM (inactive)
- GI50 (MOLT-4): 14.2 µM (inactive)
- GI50 (Malme-3M): 19.5 µM (inactive)
- GI50 (NCI-H226): 22.8 µM (inactive)
- GI50 (NCI-H23): 51.2 µM (inactive)
- GI50 (NCI-H460): 27.9 µM (inactive)
- GI50 (NCI-H522): 12 µM (inactive)
- GI50 (OVCAR-3): 19.5 µM (inactive)
- GI50 (OVCAR-4): 20.5 µM (inactive)
- GI50 (OVCAR-5): > 100 µM (inactive)
- GI50 (OVCAR-8): 87.3 µM (inactive)
- GI50 (RPMI-8226): 16.9 µM (inactive)
- GI50 (RXF 393): 11.9 µM (inactive)
- GI50 (SF-268): 14.2 µM (inactive)
- GI50 (SF-295): 26.4 µM (inactive)
- GI50 (SF-539): 16.3 µM (inactive)
- GI50 (SK-MEL-28): 16.1 µM (inactive)
- GI50 (SK-MEL-2): 16.1 µM (inactive)
- GI50 (SK-MEL-5): 15.7 µM (inactive)
- GI50 (SK-OV-3): 35.3 µM (inactive)
- GI50 (SN12C): 25.8 µM (inactive)
- GI50 (SNB-19): 40.6 µM (inactive)
- GI50 (SNB-75): 14.8 µM (inactive)
- GI50 (SNB-78): 28.5 µM (inactive)
- GI50 (SR): 1.79 µM (inactive)
- GI50 (SW-620): 16.6 µM (inactive)
- GI50 (TK-10): 52.7 µM (inactive)
- GI50 (U-251): 16.9 µM (inactive)
- GI50 (UACC-257): 16.2 µM (inactive)
- GI50 (UACC-62): 17.4 µM (inactive)
- GI50 (UO-31): 14.5 µM (inactive)
- GI50 (XF498): 18.3 µM (inactive)
